Source: patent US20200046836A1, “Terpene Carrier” (priority 2015, published 2020)
Like-named read-outs stand apart in the source and are kept apart here.

What was measured:
[1] = cited from earlier work
[2] = reported; cited from earlier work
[3] = Amount of lipophilic active ingredient that the carrier can hold in solution; format: physicochemical; details: Example 7

C=C1CC/C=C(\C)CC[C@@H]2[C@@H]1CC2(C)C [Beta-caryophyllene]
LD50 (Lethal Dose) ([1]; in vivo): > 5000 mg/kg

CCCCCc1cc(O)c2c(c1)OC(C)(CCC=C(C)C)C=C2 (stereo not shown) [CBC, cannabichromene]
effectiveness relative to CBD in the treatment of anxiety and stress [2]: about ten times more effective than CBD

C=C(C)[C@@H]1CCC(C)=C[C@H]1c1c(O)cc(CCCCC)cc1O [CBD, cannabidiol]
keeping CBD in solution in the propylene glycol/glycerine mixture ([3]; control carrier): difficult to maintain 10% by weight | CBD content of solution that could be prepared in the terpene mixture ([3]; terpene mixture): at least 30 % by weight

C=CC(C)(O)CCC=C(C)C (stereo not shown) [Linalool]
LD50 (Lethal Dose) ([1]; in vivo): 3000 mg/kg

C=CC(=C)CCC=C(C)C [Myrcene]
LD50 (Lethal Dose) ([1]; in vivo): > 5000 mg/kg

CN1CCCC1c1cccnc1 (stereo not shown) [nicotine, reference compound]
LD50 (Lethal Dose) ([1]; nicotine as comparison): 40 to 60 mg/kg
